{"source": "patent US9845323B2", "about": "“2-(1,3,4-oxadiazol-2-yl)-7-oxo-1,6-diazabicyclo[3.2.1 ]octane derivatives and their use as antibacterial agents” (WOCKHARDT LIMITED, priority 2014, dated 2017)", "key": {"[1]": {"biological_target": "Class A beta-lactamase SHV 18 (K. pneumoniae ATCC 700603) (Klebsiella pneumoniae, UniProt P0AD64)", "sequence (P0AD64 22-286 limits assumed)": "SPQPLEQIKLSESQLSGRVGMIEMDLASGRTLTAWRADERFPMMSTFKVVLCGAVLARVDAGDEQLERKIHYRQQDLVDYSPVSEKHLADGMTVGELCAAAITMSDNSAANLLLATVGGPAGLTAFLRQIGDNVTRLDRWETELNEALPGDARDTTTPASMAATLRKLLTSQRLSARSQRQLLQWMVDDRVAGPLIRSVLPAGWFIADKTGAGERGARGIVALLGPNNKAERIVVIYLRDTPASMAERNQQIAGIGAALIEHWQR", "experiment": "Beta-lactamase enzyme inhibition (Nitrocefin, crude enzyme)", "assay_type": "biochemical", "conditions": "read-out: Beta-lactamase enzyme inhibition IC50, K. pneumoniae ATCC 700603 (SHV 18), Nitrocefin 100 μM", "protocol": "(§1) Absorbance was measured at 485 nm by UV-spectrophotometer. The IC50 was calculated by plotting absorbance against concentration through Sigmoidal dose response curve using Graph Pad software."}, "[2]": {"system": "Class C beta-lactamase CMY/DHA (E. coli M50)", "experiment": "Beta-lactamase enzyme inhibition (Nitrocefin, crude enzyme)", "assay_type": "biochemical", "conditions": "Nitrocefin 100 μM", "protocol": "as §1"}, "[3]": {"biological_target": "T1, Class D beta-lactamase OXA 23 (A baumannii NCTC 13301) (Acinetobacter baumannii, UniProt Q9L4P2)", "T1 construct": "preincubated mixture of crude enzyme and the compounds; endogenous in cells; host or cells: A. baumannii NCTC 13301 (crude enzyme preparation)", "T1 sequence (Q9L4P2 18-273)": "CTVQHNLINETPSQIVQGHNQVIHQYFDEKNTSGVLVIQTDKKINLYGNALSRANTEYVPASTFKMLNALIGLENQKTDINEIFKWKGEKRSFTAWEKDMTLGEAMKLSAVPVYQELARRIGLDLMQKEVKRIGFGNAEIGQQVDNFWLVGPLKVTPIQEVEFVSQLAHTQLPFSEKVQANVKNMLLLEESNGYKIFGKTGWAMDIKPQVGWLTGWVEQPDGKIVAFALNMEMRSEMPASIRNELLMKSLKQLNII", "experiment": "Beta-lactamase enzyme inhibition (Nitrocefin, crude enzyme)", "assay_type": "biochemical", "conditions": "A baumannii NCTC 13301 (OXA 23), Nitrocefin 100 μM", "protocol": "as §1"}, "[4]": {"system": "K. Pneomoniae S48 (NDM, SHV, TEM)", "experiment": "Agar dilution MIC (CLSI), compound alone", "assay_type": "cell-based, K. pneumoniae", "conditions": "Klebsiella pneumoniae", "protocol": "(§2) The biological activity of representative compounds according to the invention against various bacterial strains was investigated. In a typical study, overnight grown bacterial cultures were diluted appropriately and inoculated on the agar media containing doubling dilutions of the test compounds. Observations for growth or no growth was performed after 16-20 hours of incubation at 35±2° C. in the ambient air. The overall procedure was performed as per Clinical and Laboratory Standards Institute (CLSI) recommendations, (Clinical and Laboratory Standards Institute (CLSI), Performance Standards for Antimicrobial Susceptibility Testing, 20th Informational Supplement, M 07-A9, Volume 32, No. 2, 2012). Molten Mueller Hinton Agar (BD, USA) containing serial dilutions of each antibacterial agent were poured on to the plates and allowed to solidify. Appropriate suspensions from the freshly grown cultures were prepared in normal saline so that about 10^4 CFU/spot of the organism was delivered on to the drug containing agar plates using automated multipoint inoculator (Mast, UK). The plates were incubated in Biochemical oxygen demand (BOD) incubator at 37° C. for 18 hours and then examined for growth."}, "[5]": {"system": "Multi Drug Resistant (MDR) Gram-negative bacterial strains", "experiment": "Antibacterial activity alone", "assay_type": "cell-based", "conditions": "compounds used alone; compared with standards (imipenem, ceftazidime) or avibactam", "protocol": "as §2"}, "[6]": {"system": "P. aeruginosa PAO1", "experiment": "Agar dilution MIC (CLSI), compound alone", "assay_type": "cell-based", "conditions": "Pseudomonas aeruginosa", "protocol": "as §2"}, "[7]": {"system": "P. aeruginosa 2779", "experiment": "Agar dilution MIC (CLSI), compound alone", "assay_type": "cell-based", "conditions": "Pseudomonas aeruginosa", "protocol": "as §2"}, "[8]": {"system": "K. pneumoniae B 77", "experiment": "Agar dilution MIC (CLSI), compound alone", "assay_type": "cell-based", "conditions": "Klebsiella pneumoniae, B77", "protocol": "as §2"}, "[9]": {"system": "K. pneumoniae H521 (KPC, SHV, TEM)", "experiment": "Agar dilution MIC (CLSI), compound alone", "assay_type": "cell-based", "protocol": "as §2"}, "[10]": {"system": "E. coli NCTC 13353 (CTX-M15, OXA-1)", "experiment": "Agar dilution MIC (CLSI), compound alone", "assay_type": "cell-based", "protocol": "as §2"}, "[11]": {"system": "E. coli NCTC 13352", "experiment": "Agar dilution MIC (CLSI), compound alone", "assay_type": "cell-based", "conditions": "Escherichia coli, NCTC13352", "protocol": "as §2"}, "[12]": {"system": "P. aeruginosa ATCC 27853", "experiment": "Agar dilution MIC (CLSI), compound alone", "assay_type": "cell-based", "conditions": "Pseudomonas aeruginosa, ATCC27853", "protocol": "as §2"}, "[13]": {"system": "K. pneumoniae S 21", "experiment": "Agar dilution MIC (CLSI), compound alone", "assay_type": "cell-based", "conditions": "Klebsiella pneumoniae, S21", "protocol": "as §2"}, "[14]": {"system": "E. coli 7 MP", "experiment": "Agar dilution MIC (CLSI), compound alone", "assay_type": "cell-based", "conditions": "Escherichia coli", "protocol": "as §2"}, "[15]": {"system": "E. coli M 50", "experiment": "Agar dilution MIC (CLSI), compound alone", "assay_type": "cell-based", "conditions": "Escherichia coli, M50", "protocol": "as §2"}, "[16]": {"system": "E. cloacae M 20", "experiment": "Agar dilution MIC (CLSI), compound alone", "assay_type": "cell-based", "conditions": "Enterobacter cloacae, M20", "protocol": "as §2"}, "[17]": {"system": "E. coli NCTC 13351", "experiment": "Agar dilution MIC (CLSI), compound alone", "assay_type": "cell-based", "conditions": "Escherichia coli, NCTC13351", "protocol": "as §2"}, "[18]": {"system": "C. frundaii 58 MP", "experiment": "Agar dilution MIC (CLSI), compound alone", "assay_type": "cell-based", "protocol": "as §2"}, "[19]": {"system": "P. aeruginosa R 20", "experiment": "Agar dilution MIC (CLSI), compound alone", "assay_type": "cell-based", "conditions": "Pseudomonas aeruginosa, R20", "protocol": "as §2"}, "[20]": {"system": "E. coli M 49", "experiment": "Agar dilution MIC (CLSI), compound alone", "assay_type": "cell-based", "conditions": "Escherichia coli, M49", "protocol": "as §2"}, "[21]": {"system": "K. pneumoniae H 525", "experiment": "Agar dilution MIC (CLSI), compound alone", "assay_type": "cell-based", "conditions": "Klebsiella pneumoniae, H525", "protocol": "as §2"}}}
{"smiles": "O=C1N2C[C@@H](CC[C@H]2c2nnc(Cc3ccccc3)o2)N1OS(=O)(=O)O", "note": "[Example 5, (2S,5R)-sulfuric acid mono-[2-(5-benzyl-[1,3,4]-oxadiazol-2-yl)-7-oxo-1,6-diaza-bicyclo[3.2.1]oct-6-yl] ester]", "values": [{"measurement": "IC50", "setting": "[1]", "value": 33, "unit": "nM"}, {"measurement": "IC50", "setting": "[2]", "value": 6, "unit": "nM"}, {"measurement": "IC50", "setting": "[3]", "value": 280, "unit": "nM"}, {"measurement": "MIC", "setting": "[4]", "value": 8, "unit": "µg/mL"}, {"measurement": "Antibacterial activity (MIC values) in words", "setting": "[5]", "value": "exhibited antibacterial activity in comparison to avibactam"}, {"measurement": "MIC", "setting": "[6]", "value": "> 32", "unit": "µg/mL"}, {"measurement": "MIC", "setting": "[7]", "value": "> 32", "unit": "µg/mL"}, {"measurement": "MIC", "setting": "[8]", "value": "> 32", "unit": "µg/mL"}, {"measurement": "MIC", "setting": "[9]; K. pneumoniae H 521, Table 3", "value": 32, "unit": "µg/mL"}, {"measurement": "MIC", "setting": "[9]; Klebsiella pneumoniae", "value": 32, "unit": "µg/mL"}, {"measurement": "MIC", "setting": "[10]; E. coli NCTC 13353, Table 3", "value": 8, "unit": "µg/mL"}, {"measurement": "MIC", "setting": "[10]; Escherichia coli, NCTC13353", "value": 8, "unit": "µg/mL"}, {"measurement": "MIC", "setting": "[11]", "value": 16, "unit": "µg/mL"}, {"measurement": "MIC", "setting": "[12]", "value": "> 32", "unit": "µg/mL"}, {"measurement": "MIC", "setting": "[13]", "value": "> 32", "unit": "µg/mL"}, {"measurement": "MIC", "setting": "[14]", "value": 32, "unit": "µg/mL"}, {"measurement": "MIC", "setting": "[15]", "value": 16, "unit": "µg/mL"}, {"measurement": "MIC", "setting": "[16]", "value": "> 32", "unit": "µg/mL"}, {"measurement": "MIC", "setting": "[17]", "value": 16, "unit": "µg/mL"}, {"measurement": "MIC", "setting": "[18]", "value": "> 32", "unit": "µg/mL"}, {"measurement": "MIC", "setting": "[19]", "value": "> 32", "unit": "µg/mL"}, {"measurement": "MIC", "setting": "[20]", "value": "> 32", "unit": "µg/mL"}, {"measurement": "MIC", "setting": "[21]", "value": 16, "unit": "µg/mL"}]}
